Results taken from US11634417B2 (Array BioPharma Inc., priority 2019, dated 2023).
pIC50: −log10 of the molar value. Where a name gives a salt, the structure may show the parent alone.

How the values were obtained:
[1] = system: ERK1/2 (Thr202/Tyr204) phosphorylation in KYSE520 cells; assay: Cellular Phospho-p44/42 MAPK (Erk1/2) (Thr202/Tyr204) assay, In-Cell Western; assay type: cell-based; details: Homo sapiens, KYSE-520; KYSE520 cells, 1 hour incubation, pERK signal normalized to GAPDH; single assay or mean of multiple assays; read-out: Biological Example 2 IC50
Outline: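 KYSE520 cells were treated 1 h with a 10-point 1:3 series (20 μM-1 nM, 0.5% DMSO), then fixed and stained for pERK1/2 (Thr202/Tyr204) and GAPDH by In-Cell Western. pERK signal was normalized to GAPDH per well; IC50 from 4-parameter fit.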

full-length SHP2 = target: T1, full-length SHP2 (Homo sapiens, UniProt Q06124); assay: SHP2 enzymatic assay (fluorescence intensity kinetic assay, DiFMUP hydrolysis); assay type: biochemical; details: 1 nM His6-tagged SHP2(2-527), 1 μM activating peptide, 50 μM DiFMUP; single assay or mean of multiple assays; read-out: Biological Example 1 IC50
T1 construct: 1 nM full-length SHP2 (His6-tagged SHP2(2-527), recombinantly expressed in E. coli and purified in-house); His6; made in house; host or cells: E. coli
T1 sequence (Q06124 2-527): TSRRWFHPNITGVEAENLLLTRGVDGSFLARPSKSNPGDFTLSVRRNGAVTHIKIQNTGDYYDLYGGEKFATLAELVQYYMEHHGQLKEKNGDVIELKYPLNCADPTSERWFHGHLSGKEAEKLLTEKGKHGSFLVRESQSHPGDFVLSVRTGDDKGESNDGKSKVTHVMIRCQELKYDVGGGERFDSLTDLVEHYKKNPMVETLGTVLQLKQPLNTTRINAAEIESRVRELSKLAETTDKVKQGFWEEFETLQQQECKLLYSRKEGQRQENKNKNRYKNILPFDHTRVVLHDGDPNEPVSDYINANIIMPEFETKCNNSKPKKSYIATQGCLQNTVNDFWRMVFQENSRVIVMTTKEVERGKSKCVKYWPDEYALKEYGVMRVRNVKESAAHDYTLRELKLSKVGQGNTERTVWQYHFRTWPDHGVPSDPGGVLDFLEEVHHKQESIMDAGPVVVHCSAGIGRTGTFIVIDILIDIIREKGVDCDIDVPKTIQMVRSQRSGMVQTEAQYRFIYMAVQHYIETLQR

pIC50 (full-length SHP2)	Compound	pIC50 [1]
7.36	Cc1nccc(Sc2cnc(N3CCC4(CC3)Cc3ccccc3[C@H]4N)nn2)c1C [Example 50, (S)-1′-(6-((2,3-dimethylpyridin-4-yl)thio)-1,2,4-triazin-3-yl)-1,3-dihydrospiro[indene-2,4′-piperidin]-1-amine]	8.22
7.03	N[C@@H]1c2ccccc2CC12CCN(c1ncc(Sc3ccnc(C(F)(F)F)c3Cl)nn1)CC2 [Example 51, (S)-1′-(6-((3-chloro-2-(trifluoromethyl)pyridin-4-yl)thio)-1,2,4-triazin-3-yl)-1,3-dihydrospiro[indene-2,4′-piperidin]-1-amine]	7.11
7.26	N[C@@H]1c2ccccc2CC12CCN(c1ncc(Sc3cnc4ccccn34)nn1)CC2 [Example 71, (S)-1′-(6-(imidazo[1,2-a]pyridin-3-ylthio)-1,2,4-triazin-3-yl)-1,3-dihydrospiro[indene-2,4′-piperidin]-1-amine]	6.82
7.11	CNc1nccc(Sc2cnc(N3CCC4(CC3)Cc3ncccc3[C@H]4N)nn2)c1Cl [Example 39, (S)-1′-(6-((3-chloro-2-(methylamino)pyridin-4-yl)thio)-1,2,4-triazin-3-yl)-5,7-dihydrospiro[cyclopenta[b]pyridine-6,4′-piperidin]-5-amine]	7.96
7.89	N[C@@H]1c2cccnc2CC12CCN(c1ncc(Sc3cccc4c3CC4)nn1)CC2 [Example 38, (S)-1′-(6-(bicyclo[4.2.0]octa-1(6),2,4-trien-2-ylthio)-1,2,4-triazin-3-yl)-5,7-dihydrospiro[cyclopenta[b]pyridine-6,4′-piperidin]-5-amine]	7.39
7.44	N[C@@H]1c2ccccc2CC12CCN(c1ncc(Sc3ccnc4c3CCN4)nn1)CC2 [Example 70, (S)-1′-(6-((2,3-dihydro-1H-pyrrolo[2,3-b]pyridin-4-yl)thio)-1,2,4-triazin-3-yl)-1,3-dihydrospiro[indene-2,4′-piperidin]-1-amine]	8.05
7.04	Nc1nccc(Sc2cnc(N3CCC4(CC3)Cc3cc(Cl)ccc3[C@@H]4N)nn2)c1Cl [Example 46, (R)-1′-(6-((2-amino-3-chloropyridin-4-yl)thio)-1,2,4-triazin-3-yl)-5-chloro-1,3-dihydrospiro[indene-2,4′-piperidin]-1-amine]	6.37
7.13	Nc1nccc(Sc2cnc(N3CCC4(CC3)Oc3ncccc3[C@H]4N)nn2)c1Cl [Example 77]	7.04
7.42	Cc1ccc2c(c1)[C@H](N)C1(CCN(c3ncc(Sc4ccnc(N)c4Cl)nn3)CC1)C2 [Example 47, (R)-1′-(6-((2-amino-3-chloropyridin-4-yl)thio)-1,2,4-triazin-3-yl)-6-methyl-1,3-dihydrospiro[indene-2,4′-piperidin]-1-amine]	7.25
7.41	Cc1ccc2c(n1)CC1(CCN(c3ncc(Sc4ccnc(N)c4Cl)nn3)CC1)[C@@H]2N [Example 62]	8.22
7.39	Nc1nccc(Sc2cnc(N3CCC4(CC3)Cc3ccc(Cl)cc3[C@H]4N)nn2)c1Cl [Example 64, (S)-1′-(6-((2-amino-3-chloropyridin-4-yl)thio)-1,2,4-triazin-3-yl)-6-chloro-1,3-dihydrospiro[indene-2,4′-piperidin]-1-amine]	6.54
7.85	Cc1ccc2c(c1)[C@@H](N)C1(CCN(c3ncc(Sc4ccnc(N)c4Cl)nn3)CC1)C2 [Example 45, (S)-1′-(6-((2-amino-3-chloropyridin-4-yl)thio)-1,2,4-triazin-3-yl)-6-methyl-1,3-dihydrospiro[indene-2,4′-piperidin]-1-amine]	8.70
7.23	C[C@@H]1OCC2(CCN(c3ncc(Sc4ccnc(N)c4Cl)nn3)CC2)[C@@H]1N [Example 1, (3S,4S)-8-(6-((2-amino-3-chloropyridin-4-yl)thio)-1,2,4-triazin-3-yl)-3-methyl-2-oxa-8-azaspiro[4.5]decan-4-amine]	7.26
6.85	Cc1nc(N2CCC3(CC2)CO[C@@H](C)[C@H]3N)nnc1Sc1cccc(Cl)c1Cl [Example 13, (3S,4S)-8-(6-((2,3-dichlorophenyl)thio)-5-methyl-1,2,4-triazin-3-yl)-3-methyl-2-oxa-8-azaspiro[4.5]decan-4-amine]	5.99
6.94	Cc1nc(N2CCC3(CC2)CO[C@@H](C)[C@H]3N)nnc1Sc1ccnc(N)c1Cl [Example 4, (3S,4S)-8-(6-((2-amino-3-chloropyridin-4-yl)thio)-5-methyl-1,2,4-triazin-3-yl)-3-methyl-2-oxa-8-azaspiro[4.5]decan-4-amine]	6.28
7.28	Cc1nccc(Sc2cnc(N3CCC4(CC3)CO[C@@H](C)[C@H]4N)nn2)c1Cl [Example 14, (3S,4S)-8-(6-((3-chloro-2-methylpyridin-4-yl)thio)-1,2,4-triazin-3-yl)-3-methyl-2-oxa-8-azaspiro[4.5]decan-4-amine]	7.21
6.76	Nc1nccc(Sc2cnc(N3CCC4(CC3)Cc3ncccc3[C@@H]4N)nn2)c1Cl [Example 16, (R)-1′-(6-((2-amino-3-chloropyridin-4-yl)thio)-1,2,4-triazin-3-yl)-5,7-dihydrospiro[cyclopenta[b]pyridine-6,4′-piperidin]-5-amine trihydrochloride]	7.31
7.06	Cc1nc2c(s1)[C@@H](N)C1(CCN(c3ncc(Sc4ccnc(N)c4Cl)nn3)CC1)C2 [Example 61, (S)-1′-(6-((2-amino-3-chloropyridin-4-yl)thio)-1,2,4-triazin-3-yl)-2-methyl-4,6-dihydrospiro[cyclopenta[d]thiazole-5,4′-piperidin]-6-amine]	8.22

Compound	pIC50 (full-length SHP2)	pIC50 [1]
Nc1nccc(Sc2cnc(N3[C@H]4CC[C@H]3CC(N)C4)nn2)c1Cl (stereo partly drawn) [Example 3, (1R,3s,5S)-8-(6-((2-amino-3-chloropyridin-4-yl)thio)-1,2,4-triazin-3-yl)-8-azabicyclo[3.2.1]octan-3-amine]	6.20	5.89
NC1C[C@@H]2CC[C@@H](C1)N2c1ncc(Sc2cccc(Cl)c2Cl)nn1 (stereo partly drawn) [Example 12, (1R,3s,5S)-8-(6-((2,3-dichlorophenyl)thio)-1,2,4-triazin-3-yl)-8-azabicyclo[3.2.1]octan-3-amine]	6.76	5.95
